Source: PMC6770336, “Computationally Designed Peptides for Zika Virus Detection: An Incremental Construction Approach” (Biomolecules, 2019)

What was measured:
[1] = test system: DENV-1 intact virus particles; test: Direct ELISA cross-reactivity, DENV-1; assay type: binding; conditions: plates coated with 10^6 copies/mL of intact virus particles; peptide 20 μM
Procedure: (§1) To optimize all parameters of the direct ELISA protocol, Pierce 96-well polystyrene plates, (ThermoFisher Scientific) were coated overnight at 4° C with different concentrations of intact virus particles (ZIKV or DENV). The intact virus particles were diluted using 100 mM NaHCO3, pH 9.6, and aliquots of 100 μL were dispensed into each well of the plate using a multichannel pipette. This buffer pH assured a strong hydrophobic binding interaction between polystyrene and virus particles.
(§2) After coating the plates overnight, the intact virus particles were removed by washing five times with the washing buffer (PBST) 10 mM PBS pH 7.4, 0.1% Tween-20, using an automated plate washer (MultiWash+, Molecular Devices, Sunnyvale, CA). Then, the plates were blocked with 200 μL of blocking buffers while shaking at 300 rpm at room temperature. The blocking buffers used were Pierce™ protein-free (PBS) blocking buffer (PF), Blocker™ BLOTTO (BT) in TBS, SuperBlock^TM blocking buffer, Blocker™ BSA (1X) in PBS all from ThermoFisher Scientific. After 2 h, the blocking buffers were removed using the same washing procedure mentioned above. […] The […] (450 nm) was read using a microplate reader (Clariostar Optima; BMG Labtech, Ortenberg, Germany). […]

intact ZIKV particles [2] = test: Urine and serum matrix effect on the direct ELISA signal; assay type: binding, Zika virus; conditions: peptide 20 μM; for signal decrease in serum: serum diluted 1:10; for signal decrease in serum / signal decrease in urine: 10 mM PBS pH 7.4; for signal decrease in urine: urine diluted 1:1
Procedure: (§3) After coating the plates overnight, the intact virus particles were removed by washing five times with the washing buffer (PBST) 10 mM PBS pH 7.4, 0.1% Tween-20, using an automated plate washer (MultiWash+, Molecular Devices, Sunnyvale, CA). Then, the plates were blocked with 200 μL of blocking buffers while shaking at 300 rpm at room temperature. The blocking buffers used were Pierce™ protein-free (PBS) blocking buffer (PF), Blocker™ BLOTTO (BT) in TBS, SuperBlock^TM blocking buffer, Blocker™ BSA (1X) in PBS all from ThermoFisher Scientific. After 2 h, the blocking buffers were removed using the same washing procedure mentioned above. Hundred microliter aliquots of several dilutions of peptides biotinylated in 10 mM PBS pH 7.4 were placed in each well and incubated for 2 h while shaking at 300 rpm at room temperature. After the incubation, the unreacted peptides were removed by using the plate washer with the same settings. Then, 100 μL-aliquots of streptavidin-HRP (ThermoFisher Scientific) at a concentration of 20 ng/mL were added into each well and incubated for 30 min at room temperature without shaking. After the incubation, excess streptavidin-HRP was removed and the wells were washed with the plate washer five times using the washing buffer. Finally, 100 μL-aliquots of the Ultra TMB-ELISA substrate solution (ThermoFisher Scientific) were added and after 10 min, the reaction was stopped by adding 100 μL aliquots of the TMB stop solution from SeraCare, available online at; https://www.seracare.com (accessed on 1 abril 2019). The […] (450 nm) was read using a microplate reader (Clariostar Optima; BMG Labtech, Ortenberg, Germany).
Usually, the presence of ZIKV in affected bodies is detected in biological fluids. Therefore, the analytical sensitivity of the selected peptides was tested in two biological matrices, namely, urine and serum. The matrix effect was investigated to understand how real biological fluids could modify the binding efficiency of the peptides.
Figure 8 reports the ELISA data using solutions of peptides with or without the urine and serum obtained, coating clear 96-well plates with 10^6 and 10^7 copies/mL of intact ZIKV particles. Serum and urine were 1:10 and 1:1 diluted, respectively, with a concentrated peptide PBS solution to obtain a peptide final concentration of 20 μM (10 mM PBS, pH 7.4). A coating concentration of 10^5 was also tested, but no signal was observed after the addition of the biological matrix.

[3] = test system: DENV-2 intact virus particles; test: Direct ELISA cross-reactivity, DENV-2; assay type: binding; conditions: plates coated with 10^6 copies/mL of intact virus particles; peptide 20 μM
Procedure: as §1, §2

intact ZIKV particles [4] = test: Direct ELISA vs. intact ZIKV particles; assay type: binding, Zika virus; conditions: for FPLR—Dynamic Range: direct ELISA, plates coated with 10-fold serial dilutions of intact ZIKV particles, biotinylated peptide 20 μM in PBS pH 7.4 (4G2 1 μg/mL in PBST), absorbance 450 nm; for FPLR—Dynamic Range / FPLR—maximum / FPLR—minimum: four parameters logistic fit; for FPLR—Dynamic Range / FPLR—C50 / LOD: n = 3; for Long-term stability: dose-response performance of the ELISA reproducible over time, stock 1 mM in 10 mM PBS pH 7.4 stored at −30° C; for FPLR—C50: four parameters logistic fit of delta absorbance vs log ZIKV concentration; for FPLR—C50 / FPLR—maximum / FPLR—minimum / LOD: peptide 20 μM in PBS (4G2 1 μg/mL in PBST); for LOD: interpolated from calibration curve, LOD = AvB + 3 × SDB
Procedure: Before biotin functionalization, peptides stock solution was reduced using Tris[2-carboxyethyl] phosphine hydrochloride (TCEP) disulfide reducing gel from ThermoFisher Scientific available online at: www.thermofisher.com (accessed on 15 April 2019) and after 1 h, the gel was removed using TCEP gel spin separation columns (ThermoFisher Scientific). Then, two-fold molar excess of EZ-Link™ Maleimide-PEG2-Biotin (ThermoFisher Scientific) was added to purified peptide solution and incubated for 1 h. […] Therefore, no further separation was carried out.
as §1
The antibody 4G2 hybridoma mouse IgG2a was used as the reference and employed in combination with an anti-mouse IgG conjugated to HRP.
as §3
The corresponding blank signals in triplicates were obtained by using all reagents without peptides. They were subtracted to the average absorbance values for triplicate wells of each test.
The optimal concentration of peptide was determined by coating clear 96-well plates with a solution of 10^7 copies/mL of intact ZIKV particles. Concentrations of peptide, from 0.1 to 50 μM, diluted in 10 mM PBS pH 7.4 were added to wells of the microplates coated with intact ZIKV particles. […] Thus, a peptide concentration of 20 μM was used to estimate the linear range and the limit of detection (LOD) of the assay by using 10-fold serial dilutions of intact ZIKV particles from 10^1 to 10^9 copies/mL.
The regression parameters of the assay are reported in Table 4 and the sigmoidal trend in Figure 6. The LOD was interpolated from the calibration curves using LOD = AvB + 3 × SDB, where AvB and SDB were the average (Av) and the standard deviation (SD) of the blank measurements, respectively.

[5] = 10^6 copies/mL of intact ZIKV particles
[6] = 10^7 copies/mL of intact ZIKV particles

Substance	DENV/ZIKV signal ratio, DENV-1 [1]	detection limit in urine and serum (intact ZIKV particles [2]; serum 1:10 and urine 1:1)	signal decrease in serum (intact ZIKV particles [2]; [5]) [%]	signal decrease in serum (intact ZIKV particles [2]; [6]) [%]	signal decrease in urine (intact ZIKV particles [2]; [5]) [%]	signal decrease in urine (intact ZIKV particles [2]; [6]) [%]	DENV/ZIKV signal ratio, DENV-2 [3] [%]	FPLR—Dynamic Range (intact ZIKV particles [4])	Long-term stability (intact ZIKV particles [4]) [Month]	FPLR—C50 (intact ZIKV particles [4])	FPLR—maximum (intact ZIKV particles [4])	FPLR—minimum (intact ZIKV particles [4])	LOD (intact ZIKV particles [4])
C-KRNATP [X1, experimental peptide with N-terminal cysteine, labelled with maleimide-PEG2-biotin for ELISA]	32%	10^7 copies/mL	95	89	95	82	49	5-7 log[ZIKV], copies/mL	>1	6.1 log[ZIKV], copies/mL	0.973 Absorbance (450 nm)	0.026 Absorbance (450 nm)	4.8 log[ZIKV], copies/mL
C-LRGHA [P2, experimental peptide with N-terminal cysteine, labelled with maleimide-PEG2-biotin for ELISA]	–	–	77	72	72	85	34	5-7 log[ZIKV], copies/mL	>1	6.1 log[ZIKV], copies/mL	0.928 Absorbance (450 nm)	0.036 Absorbance (450 nm)	4.7 log[ZIKV], copies/mL
C-SWPGQ [P1, experimental peptide with N-terminal cysteine, labelled with maleimide-PEG2-biotin for ELISA]	–	–	–	–	–	–	–	7-8 log[ZIKV], copies/mL	>1	6.6 log[ZIKV], copies/mL	0.140 Absorbance (450 nm)	0.001 Absorbance (450 nm)	6.8 log[ZIKV], copies/mL
C-SHRNATA [H2, experimental peptide with N-terminal cysteine, labelled with maleimide-PEG2-biotin for ELISA]	–	–	–	–	–	–	–	6-8 log[ZIKV], copies/mL	>1	6.5 log[ZIKV], copies/mL	0.683 Absorbance (450 nm)	0.014 Absorbance (450 nm)	5.7 log[ZIKV], copies/mL
C-GSKANNG [H1, experimental peptide with N-terminal cysteine, labelled with maleimide-PEG2-biotin for ELISA]	up to 42%	–	82	73	53	45	–	5-7 log[ZIKV], copies/mL	>1	6.2 log[ZIKV], copies/mL	0.826 Absorbance (450 nm)	0.036 Absorbance (450 nm)	4.5 log[ZIKV], copies/mL
C-KTDAYS [X2, experimental peptide with N-terminal cysteine, labelled with maleimide-PEG2-biotin for ELISA]	–	–	–	–	–	–	–	6-8 log[ZIKV], copies/mL	>1	6.2 log[ZIKV], copies/mL	0.915 Absorbance (450 nm)	0.007 Absorbance (450 nm)	5.8 log[ZIKV], copies/mL
